We go through 22 molecules from patent US11390604B2 (Hoffmann-La Roche Inc., priority 2019, dated 2022).

Each structure is given as a SMILES string. Structures can show the parent of a compound that is named as a salt. Where two headings read alike, the source gives them in different places.

The subject of this test is Acinetobacter baumannii ATCC 17961. Nature of the test: Antimicrobial susceptibility testing: 90% growth inhibitory concentration (IC90) determination. It is filed as cell-based. The essentials: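 Growth was followed kinetically by OD600 at 20-min intervals for 16 h at 35±2 °C, with ~5×10^5 CFU/ml in Iso-Sensitest broth. Compounds were tested as twofold dilutions (e.g. 50–0.097 μM final). The concentration giving 90% inhibition of log-phase growth was reported.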

The mark [1] stands for this setting: ATCC17961, Acinetobacter baumannii ATCC 17961, Iso-Sensitest broth, read-out: ATCC 17961 IC90.

For the molecule `Cn1c(-c2cn(C3CC3)nc2C(F)(F)F)cnc1C(=O)Nc1ccc(C(=O)N[C@H]2C[C@@H](N)C2)c(Cl)c1` [Example 97, N-[4-[(3-aminocyclobutyl)carbamoyl]-3-chlorophenyl]-5-[1-cyclopropyl-3-(trifluoromethyl)pyrazol-4-yl]-1-methylimidazole-2-carboxamide], the IC90 under setting [1] was found to be 595 nM.

Regarding `Cn1c(-c2cn(C3CC3(F)F)nc2C(F)(F)F)cnc1C(=O)Nc1ccc(C(=O)NC2CC3(CC(N)C3)C2)c(Cl)c1` (stereo not shown) [Example 193, N-(4-((6-aminospiro[3.3]heptan-2-yl)carbamoyl)-3-chlorophenyl)-5-(1-(2,2-difluorocyclopropyl)-3-(trifluoromethyl)-1H-pyrazol-4-yl)-1-methyl-1H-imidazole-2-carboxamide formate], under setting [1], the IC90 was determined as 188 nM.

Take `C#CCn1cc(-c2cnc(C(=O)Nc3ccc(S(C)(=O)=NCCCN)c(C)c3)n2C)c(C(F)(F)F)n1` (stereo not shown) [Example 342, N-[4-[N-(3-aminopropyl)-S-methyl-sulfonimidoyl]-3-methyl-phenyl]-1-methyl-5-[1-prop-2-ynyl-3-(trifluoromethyl)pyrazol-4-yl]imidazole-2-carboxamide; formic acid]: the IC90 under setting [1] worked out at 442 nM.

Regarding `Cn1c(-c2cn([C@@H]3CC3(F)F)nc2C(F)(F)F)cnc1C(=O)Nc1ccc(C(=O)N[C@H]2[C@@H]3CN(C(=O)N[C@@H]4CNC[C@H]4O)C[C@@H]32)c(Cl)c1` [Example 181, (1S,5R)-6-[[2-chloro-4-[[5-[1-[(1R)-2,2-difluorocyclopropyl]-3-(trifluoromethyl)pyrazol-4-yl]-1-methyl-imidazole-2-carbonyl]amino]benzoyl]amino]-N-[(3R,4R)-4-hydroxypyrrolidin-3-yl]-3-azabicyclo[3.1.0]hexane-3-carboxamide; Hydrochloride], the IC90 under setting [1] is 64 nM.

On to `Cn1c(-c2cn(Cc3ccccc3)nc2C(F)(F)F)cnc1C(=O)Nc1ccc(C(=O)N2CCN(C(=O)C3CCNCC3)CC2)c(Cl)c1` [Example 241, 5-(1-benzyl-3-(trifluoromethyl)-1H-pyrazol-4-yl)-N-(3-chloro-4-(4-(piperidine-4-carbonyl)piperazine-1-carbonyl)phenyl)-1-methyl-1H-imidazole-2-carboxamide hydrochloride], for which the IC90 under setting [1] was 281 nM.

Consider `Cn1c(-c2cn(CC3CC3(F)F)nc2C(F)(F)F)cnc1C(=O)Nc1ccc(C(=O)NC2C3CN(C(=O)C4CCNCC4)CC32)c(Cl)c1` (stereo not shown) [Example 220, N-(3-chloro-4-((3-(piperidine-4-carbonyl)-3-azabicyclo[3.1.0]hexan-6-yl)carbamoyl)phenyl)-5-(1-((2,2-difluorocyclopropyl)methyl)-3-(trifluoromethyl)-1H-pyrazol-4-yl)-1-methyl-1H-imidazole-2-carboxamide formate], for which the 90% effect concentration (IC90) under setting [1] is 245 nM.

Take `Cn1c(-c2cn(CC3CCC3)nc2C(F)(F)F)cnc1C(=O)Nc1ccc(C(=O)N[C@H]2[C@@H]3CN(C(=O)N[C@@H]4CNC[C@H]4O)C[C@@H]32)c(Cl)c1` [Example 388, (1R,5S,6s)-6-(2-chloro-4-(5-(1-(cyclobutylmethyl)-3-(trifluoromethyl)-1H-pyrazol-4-yl)-1-methyl-1H-imidazole-2-carboxamido)benzamido)-N-((3R,4R)-4-hydroxypyrrolidin-3-yl)-3-azabicyclo[3.1.0]hexane-3-carboxamide formate]: under setting [1], the IC90 was 170 nM.

As to `Cn1c(-c2cn(CC#CCO)nc2C(F)(F)F)cnc1C(=O)Nc1ccc(C(=O)N2CCN(C(=O)C3CCNCC3)CC2)c(Cl)c1` [Example 6, N-(3-chloro-4-(4-(piperidine-4-carbonyl)piperazine-1-carbonyl)phenyl)-5-(1-(4-hydroxybut-2-yn-1-yl)-3-(trifluoromethyl)-1H-pyrazol-4-yl)-1-methyl-1H-imidazole-2-carboxamide hydrochloride], the IC90 under setting [1] turned out to be 676 nM.

For the molecule `CCc1cc(NC(=O)c2ncc(-c3cn(CC#N)nc3C(F)(F)F)n2C)ccc1C(=O)N1CCN(C(=O)N2CCC(C)(N)CC2)CC1` [Example 136, N-[4-[4-(4-amino-4-methylpiperidine-1-carbonyl)piperazine-1-carbonyl]-3-ethylphenyl]-5-[1-(cyanomethyl)-3-(trifluoromethyl)pyrazol-4-yl]-1-methylimidazole-2-carboxamide;formic acid], the IC90 under setting [1] stood at 741 nM.

In the case of `CCc1cc(NC(=O)c2ncc(-c3cn(CC#N)nc3C(F)(F)F)n2C)ccc1C(=O)N1CCN(C(=O)C2(O)CCNCC2)CC1` [Example 129, 5-[1-(cyanomethyl)-3-(trifluoromethyl)pyrazol-4-yl]-N-[3-ethyl-4-[4-(4-hydroxypiperidine-4-carbonyl)piperazine-1-carbonyl]phenyl]-1-methylimidazole-2-carboxamide;formic acid], the 90% effect concentration (IC90) under setting [1] turned out to be 949 nM.

Consider `Cn1c(-c2cn(CC3CC3)nc2C(F)(F)F)cnc1C(=O)Nc1ccc(C(=O)N2CCN(C(=O)[C@H]3[C@@H]4CNC[C@@H]43)CC2)c(F)c1` [Example 194, rac-N-(4-(4-((1R,5S,6r)-3-azabicyclo[3.1.0]hexane-6-carbonyl)piperazine-1-carbonyl)-3-fluorophenyl)-5-(1-(cyclopropylmethyl)-3-(trifluoromethyl)-1H-pyrazol-4-yl)-1-methyl-1H-imidazole-2-carboxamide hydrochloride], for which the concentration for an effect of 90% (IC90) under setting [1] turned out to be 193 nM.

For `Cn1c(-c2cn(C3CC3)nc2C(F)(F)F)cnc1C(=O)Nc1ccc(C(=O)N2CCC(C(=O)N[C@H]3C[C@H](N)C3)CC2)c(Cl)c1` [Example 339, N-(3-aminocyclobutyl)-1-[2-chloro-4-[[5-[1-cyclopropyl-3-(trifluoromethyl)pyrazol-4-yl]-1-methyl-imidazole-2-carbonyl]amino]benzoyl]piperi-dine-4-carboxamide; formic acid], the IC90 under setting [1] turned out to be 427 nM.

Regarding `C#CCn1cc(-c2cnc(C(=O)Nc3ccc(C(=O)N(C)C)c(Cl)c3)n2C)c(C(F)(F)F)n1` [Example 42, N-(3-chloro-4-(dimethylcarbamoyl)phenyl)-1-methyl-5-(1-(prop-2-yn-1-yl)-3-(trifluoromethyl)-1H-pyrazol-4-yl)-1H-imidazole-2-carboxamide], the 90% effect concentration (IC90) under setting [1] was 241 nM.

On to `C#CCn1cc(-c2cnc(C(=O)Nc3ccc(C(=O)N[C@H]4C[C@@H](N)C4)c(Cl)c3)n2C)c(C(F)(F)F)n1` [Example 93, N-[4-[(3-aminocyclobutyl)carbamoyl]-3-chlorophenyl]-1-methyl-5-[1-prop-2-ynyl-3-(trifluoromethyl)pyrazol-4-yl]imidazole-2-carboxamide;hydrochloride], for which the 90% effect concentration (IC90) under setting [1] is 557 nM.

Consider `Cn1c(-c2cn(C3CC3)nc2C(F)(F)F)cnc1C(=O)Nc1ccc(C(=O)NCCCCCCNC(=O)NCC2CNC2)c(Cl)c1` [Example 378, N-[4-[6-(azetidin-3-ylmethylcarbamoylamino)hexyl-carbamoyl]-3-chlorophenyl]-5-[1-cyclopropyl-3-(trifluoromethyl)pyrazol-4-yl]-1-methylimidazole-2-carboxamide;formic acid], for which the IC90 under setting [1] came out at 497 nM.

As to `C#CCn1cc(-c2cnc(C(=O)Nc3ccc(C(=O)N4CCN(C(=O)OC(C)(C)C)CC4)c(Cl)c3)n2C)c(C(F)(F)F)n1` [Example 34, tert-butyl 4-[2-chloro-4-[[1-methyl-5-[1-prop-2-ynyl-3-(trifluoromethyl)pyrazol-4-yl]imidazole-2-carbonyl]amino]benzoyl]piperazine-1-carboxylate], the IC90 under setting [1] stood at 1060 nM.

As for `CC(C)n1cc(-c2cnc(C(=O)Nc3ccc(C(=O)N4CCN(C(=O)C5CCNCC5)CC4)c(Cl)c3)n2C)c(C(F)(F)F)n1` [Example 102, N-[3-chloro-4-[4-(piperidine-4-carbonyl)piperazine-1-carbonyl]phenyl]-1-methyl-5-[1-propan-2-yl-3-(trifluoromethyl)pyrazol-4-yl]imidazole-2-carboxamide;hydrochloride], under setting [1], the concentration for an effect of 90% (IC90) was found to be 448 nM.

Regarding `Cc1cc(NC(=O)c2ncc(-c3cn(CC#N)nc3C(F)(F)F)n2C)cc(F)c1C(=O)N1CCN(C(=O)C2(O)CCCNC2)CC1` (stereo not shown) [Example 120, 5-[1-(cyanomethyl)-3-(trifluoromethyl)pyrazol-4-yl]-N-[3-fluoro-4-[4-(3-hydroxypiperidine-3-carbonyl)piperazine-1-carbonyl]-5-methylphenyl]-1-methylimidazole-2-carboxamide], under setting [1], the 90% effect concentration (IC90) is 2250 nM.

Turning to `Cn1c(-c2cn(CC#N)nc2C(F)(F)F)cnc1C(=O)Nc1ccc(C(=O)N[C@H]2C[C@@H](NC(=O)N3CCC(CN)C3)C2)c(Cl)c1` (stereo partly shown) [Example 359, N-[4-[[3-[[3-(aminomethyl)pyrrolidine-1-carbonyl]amino]cyclobutyl]car-bamoyl]-3-chloro-phenyl]-5-[1-(cyanomethyl)-3-(trifluoromethyl)pyrazol-4-yl]-1-methyl-imidazole-2-carboxamide; formic acid], under setting [1], the IC90 was 467 nM.

For the molecule `Cn1c(-c2cn(CC3CCC3)nc2C(F)(F)F)cnc1C(=O)Nc1ccc(C(=O)N2CCN(C(=O)[C@H]3C[C@@H](N)C3)CC2)c(Cl)c1` [Example 295, rac-N-(4-(4-((1s,3s)-3-aminocyclobutane-1-carbonyl)piperazine-1-carbonyl)-3-chlorophenyl)-5-(1-(cyclobutylmethyl)-3-(trifluoromethyl)-1H-pyrazol-4-yl)-1-methyl-1H-imidazole-2-carboxamide hydrochloride], the 90% effect concentration (IC90) under setting [1] is 364 nM.

In the case of `CCc1cc(NC(=O)c2ncc(-c3cn(CC(F)F)nc3C(F)(F)F)n2C)ccc1C(=O)NCCCCCNCC(=O)OC(C)(C)C` [Example 219, tert-butyl (5-(4-(5-(1-(2,2-difluoroethyl)-3-(trifluoromethyl)-1H-pyrazol-4-yl)-1-methyl-1H-imidazole-2-carboxamido)-2-ethylbenzamido)pentyl)glycinate], the IC90 under setting [1] stood at 245 nM.

`Cn1c(-c2cn(C3CC3(F)F)nc2C(F)(F)F)cnc1C(=O)Nc1ccc(C(=O)NCC2CCCN(C(=O)N[C@H]3CNC[C@@H]3O)C2)c(Cl)c1` (mixture of isomers) [Example 226, formate]: the concentration for an effect of 90% (IC90) (Acinetobacter baumannii, ATCC17961, read-out: ATCC 17961 IC90, Acinetobacter baumannii ATCC 17961, Iso-Sensitest broth) was 259 nM.

Broadly, the IC90 is the concentration needed for an effect of 90%.
